Like-named read-outs stand apart in the source and are kept apart here.
Legend:
[1] = tested on: asexual blood-stage P. falciparum strain Dd2L; experiment: asexual blood-stage P. falciparum assay with SYBR Green detection; format: cell-based, Plasmodium falciparum; settings: for blood-stage antimalarial activity (in words): P. falciparum; for EC50: Plasmodium falciparum, 72 h
Protocol: A standard method for evaluating antimalarial activity with asexual blood-stage P. falciparum and SYBR Green detection was used to assess the potency of extracts, fractions, and compounds [50]. Screening media was prepared from complete media supplemented with 0.05% Albumax II (but without human serum). Dr. David Fidock of Columbia University provided P. falciparum strain Dd2L, which was cultured with fresh O+ erythrocytes (TSRI Normal Blood Donation). Compounds were transferred to assay plates using a Labcyte ECHO acoustic liquid handler. Fresh and parasitized erythrocytes were prepared in screening media before inoculating plates (Multi-Flo; BioTek, VT) with a final hematocrit of 2.5% and a final parasitemia of 0.3%. The assay plates were incubated for 72 h in a chamber at 37 °C with a low oxygen gas formulation with daily gas exchanges. After incubation, a Multi-Flo liquid dispenser transferred SYBR Green lysis buffer to the wells, and the plates were incubated for another 24 h at room temperature to achieve optimal development of fluorescence signal, which was read by an Envision Multimode Reader (PerkinElmer, MA).

[2] = tested on: liver-stage P. berghei (Pb-Luc sporozoites in HepG2 cells); experiment: microbe, parasite or virus in culture; format: cell-based, Plasmodium berghei; settings: read-out: Liver-Stage P. berghei half-maximal effective concentration (EC50)
Protocol: Activity against liver-stage P. berghei was quantified for extracts, fractions, and pure compounds using a slightly modified 48 h luminescence-based assay. The salivary gland of infected Anopheles stephensi was dissected to harvest P. berghei-ANKA-GFP-LucSMCON (Pb-Luc) sporozoites (originally received from Dr. Ana Rodriguez of NYU School of Medicine; last round of testing to evaluate pure 1, 3–5 used infected mosquitoes from Elizabeth Winzeler at UCSD and Dennis Kyle at UGA) which were filtered through a 20 μm nylon net filter twice (Steriflip, Millipore, MA), counted with a hemocytometer, and adjusted to achieve a final concentration of 200 sporozoites/1 μL in the assay media (DMEM without Phenol Red (Life Technologies, CA), 5% FBS, and 5 × Pen−Strep and glutamine (Life Technologies, CA)). A Multi-Flo (BioTek, VT) with a 1 μL cassette was used to transfer purified sporozoites, 1 × 10^3 sporozoites per well (5 μL), to assay plates containing HepG2 cells. After incubation at 37 °C for 48 h, a bioluminescence measurement was taken to assess the liver-stage growth. More specifically, media was removed by inverting the plates, and spinning them at 150 × g for 30 s, and 2 μL per well of BrightGlo (Promega, WI) was added for quantification of Pb-Luc viability. The luminescence was measured immediately after addition of the luminescence reagent using an Envision Multilabel Reader (PerkinElmer, MA).

HEK293T cells = experiment: HEK293T cytotoxicity; settings: for HEK293T Cytotoxicity, half-maximal cytotoxicity concentration: HEK293T cells
Protocol: A previously described method was utilized to evaluate cytotoxicity against HepG2 and HEK293T cells as a measure of general human toxicity. Assay data generated for Plasmodium was analyzed with a Genedata Screener (v13.0-Standard). Inhibitors (puromycin for cytotoxicity and atovaquone for liver-stage parasites) were subtracted from neutral controls to normalize data. The Smart Fit function of the Genedata Analyzer generated dose-response curves that were used to calculate the half-maximal effective concentrations (EC50).

HepG2 cells = experiment: HepG2 cytotoxicity; format: cell-based, human; settings: for HepG2 Cytotoxicity, half-maximal cytotoxicity concentration: HepG2 cells
Protocol: A previously described method was utilized to evaluate cytotoxicity against HepG2 and HEK293T cells as a measure of general human toxicity [52]. Assay data generated for Plasmodium was analyzed with a Genedata Screener (v13.0-Standard). Inhibitors (puromycin for cytotoxicity and atovaquone for liver-stage parasites) were subtracted from neutral controls to normalize data. The Smart Fit function of the Genedata Analyzer generated dose-response curves that were used to calculate the half-maximal effective concentrations (EC50).

rabbit muscle actin = target: T1, rabbit muscle actin (Oryctolagus cuniculus, UniProt P68135); experiment: actin polymerization assay (pyrene-labeled rabbit muscle actin); format: biochemical
T1 construct: purchased Abcam ab239724
Source text: Of the proteins predicted to bind to kakeromamide (1), actin and sortilin were deemed worthy of further evaluation given their higher predicted binding values. However, no in vitro sortilin assay is available. In contrast, actin polymerization assays are frequently employed to assess agents that affect actin dynamics, albeit using mammalian homologs of actin. Since 1 was predicted to bind to both Plasmodium and mammalian actin proteins but only mammalian actin assays are commercially available, an actin polymerization assay that uses pyrene-labeled rabbit muscle actin was employed. Several natural products are known to disrupt actin’s function by either inhibiting or stabilizing polymerization, which could arise from ligand binding. Since apicomplexan actins (including those of Plasmodium) and mammalian actins are relatively divergent, Plasmodium actin might be a useful molecular target. […] Similar activity by 1 could be one possible explanation for the observed increase in actin polymerization with increasing concentrations of 1. Although 1 appears to impact mammalian actin polymerization, future tests evaluating the impact of 1 on Plasmodium actin function would be worthwhile in order to further elucidate whether interactions with actin are relevant to this natural product’s mechanism of action on the malaria parasite.
The computationally predicted binding of 1 to actin was experimentally evaluated using a rabbit muscle actin polymerization assay kit from Abcam (kit ab239724) using the manufacturer’s protocol. Mean signal for n = 3 (actin polymerization control, solvent control, and background) or n = 2 (four different concentrations of latrunculin A and kakeromamide B) replicates was acquired for time points taken every 30 s for 1 h on a Synergy H4 plate reader. The results were plotted in GraphPad Prism 8 with an exponential plateau curve.

[3] = read-out: Blood-Stage P. falciparum half-maximal effective concentration (EC50), asexual blood-stage, strain Dd2L, 72 h, SYBR Green
[4] = Plasmodium berghei, HepG2, 48 h, sporozoites from University of California San Diego (UCSD), 48 h
[5] = Plasmodium berghei, HepG2, 48 h, sporozoites from the University of Georgia (UGA), 48 h
[6] = Plasmodium berghei, HepG2, 48 h

SMILES: CO[C@@H]1[C@@H](OC)[C@H](C)O[C@@H](O[C@@H]2C[C@@H]3CC[C@H](C)[C@@H](O)C[C@](C)(CC/C=C/C=C/Br)OC(=O)C[C@](O)(C2)O3)[C@@H]1OC [Compound 4, 18E-lyngbyaloside C]
- blood-stage antimalarial activity (in words) [1]: inactive
- EC50 [1, 3]: > 19 µM
- EC50 [2, 4]: > 16 µM
- EC50 [2, 5]: 7.1 µM
- HEK293T Cytotoxicity, half-maximal cytotoxicity concentration (HEK293T cells): >31 µM
- HepG2 Cytotoxicity, half-maximal cytotoxicity concentration (HepG2 cells): 17 µM

SMILES: CC1(C)c2nc(-c3ccc(F)cc3)c(Nc3ccc(F)cc3)n2CCN1C(=O)CN [ganaplacide, reference compound]
- EC50 [1, 3]: 0.0059 µM

SMILES: C/C1=C/C(=O)O[C@@H]2C[C@@H](CC[C@H](C)/C=C\C=C\CC1)O[C@@](O)([C@@H]1CSC(=O)N1)C2 [latrunculin A, reference compound]
- concentrations at which actin polymerization was suppressed (rabbit muscle actin; Figure S23): above 1.2 µM

SMILES: CCCCCC1NC(=O)c2csc(n2)C(C)NC(=O)C(Cc2ccc(OC)cc2)N(C)C(=O)C(Cc2ccc(OC)cc2)N(C)C(=O)C(C(C)C)NC(=O)C1C (stereo not shown) [Compound 1, kakeromamide B]
- blood-stage antimalarial activity (in words) [1]: only moderately active
- EC50 [1, 3]: 8.9 µM
- EC50 [2, 4]: > 12 µM
- EC50 [2, 5]: 11 µM
- HEK293T Cytotoxicity, half-maximal cytotoxicity concentration (HEK293T cells): >23 µM
- cytotoxicity against HEK293T (in words) (HEK293T cells; HEK293T human cell line): did not exhibit toxicity
- HepG2 Cytotoxicity, half-maximal cytotoxicity concentration (HepG2 cells): >23 µM
- cytotoxicity against HepG2 / human liver cells (in words) (HepG2 cells; HepG2 human cell line): did not exhibit toxicity
- effect on mammalian actin polymerization (in words) (rabbit muscle actin; dose dependence): stimulated actin polymerization in a dose-dependent manner
- effect on actin polymerization relative to controls (rabbit muscle actin; highest tested concentration, 25 µM, Figure S23): enhancing actin polymerization
- effect on actin polymerization relative to controls (rabbit muscle actin; lowest tested concentration, 0.025 µM, Figure S23): moderately suppressed polymerization

SMILES: OC(c1cc(C(F)(F)F)nc2c(C(F)(F)F)cccc12)C1CCCCN1 (stereo not shown) [mefloquine, reference compound]
- EC50 [1, 3]: 0.0029 µM

SMILES: CO[C@@H]1[C@@H](OC)[C@H](C)O[C@@H](O[C@@H]2C[C@H]3O[C@@](O)(C2)[C@H](C)C(=O)O[C@@H](/C=C/C=C/Br)C[C@@H](C)/C=C\C[C@H](O)[C@@H]3C)[C@@H]1OC [Compound 5, lyngbyaloside]
- blood-stage antimalarial activity (in words) [1]: inactive
- EC50 [1, 3]: > 7.9 µM
- EC50 [2, 4]: > 6.3 µM
- EC50 [2, 5]: 4.5 µM
- HEK293T Cytotoxicity, half-maximal cytotoxicity concentration (HEK293T cells): >13 µM
- HepG2 Cytotoxicity, half-maximal cytotoxicity concentration (HepG2 cells): >13 µM

SMILES: CC[C@H](C)[C@@H]1NC(=O)CNC(=O)c2csc(n2)[C@H](C(C)(C)O)OC(=O)C(C)(C)[C@H](CCCC(C)(Cl)Cl)OC(=O)c2csc1n2 [Compound 3, lyngbyabellin A]
- EC50 [1, 3]: 0.0015 µM
- EC50 [2, 6]: > 10 µM
- EC50 ([2]; sporozoites from University of California San Diego (UCSD), 48 h): > 10 µM
- HEK293T Cytotoxicity, half-maximal cytotoxicity concentration (HEK293T cells): 19 µM
- selectivity index for Plasmodium versus HEK293T (HEK293T cells; blood-stage P. falciparum versus normal kidney epithelial cells (HEK293T)): 13,000
- HepG2 Cytotoxicity, half-maximal cytotoxicity concentration (HepG2 cells): 3.3 µM
- selectivity index for Plasmodium versus HepG2 (HepG2 cells; blood-stage P. falciparum versus human liver carcinoma cells (HepG2)): 2,200

SMILES: CCC[C@H]1NC(=O)c2csc(n2)[C@H](C)NC(=O)[C@H](C(C)C)N(C)C(=O)[C@H](Cc2ccccc2)N(C)C(=O)[C@H](C)OC(=O)[C@@H]1C [Compound 2, ulongamide A]
- EC50 ([1]; read-out: Blood-Stage P. falciparum half-maximal effective concentration (EC50)): 0.99 µM
- EC50 [2, 6]: > 4 µM
- HEK293T Cytotoxicity, half-maximal cytotoxicity concentration (HEK293T cells): >4.8 µM

SMILES: O=C1C(O)=C([C@H]2CC[C@H](c3ccc(Cl)cc3)CC2)C(=O)c2ccccc21 [Atovaquone, reference compound]
- EC50 [2, 4]: 0.0037 µM
- EC50 [2, 5]: 0.0017 µM
- EC50 ([2]; Plasmodium berghei, HepG2, 48 h, sporozoites sourced from New York University (NYU) School of Medicine, 48 h): < 0.00028 µM
- HEK293T Cytotoxicity, half-maximal cytotoxicity concentration (HEK293T cells): >2.0 µM
